{
  "source": "patent US20040122209A1",
  "about": "“Products for regulating the degradation of collagen and methods for identifying same” (Shriners Hospital For Children, priority 2002, published 2004)",
  "type_in_all_cases": "cell-based",
  "key": {"[1]": {"tested_on": "normal human adult articular cartilage explants", "test": "Type II collagen cleavage by collagenase (COL2-3/4C) in human articular cartilage explant culture", "description": "Human femoral chondylar cartilages were obtained at autopsy within 18 hours of death from adult persons with no known history of arthritis and no macroscopic signs of articular degeneration. None of the persons had diabetes or had received chemotherapy prior to autopsy. Adult bovine articular cartilage was obtained from adults/bovine steers and cows from metacarpalphalangeal joints obtained at the abbatoir immediately after slaughter. All cartilage specimens were removed immediately to the laboratory under sterile conditions.\n(§1) The cartilages were prepared as previously described (Dahlberg, L. et al. (2000) supra. In brief, the cartilage samples were washed three times with basal culture medium containing Dulbecco's modified Eagle's medium (DMEM; Gibco BRL, Life Technologies, Grand Island, N.Y.) with 20 mM HEAPS buffer (pH 7.4) (Gibco BRL), 45 mM NaHCO3, 100 units/ml penicillin, 100 μg/ml streptomycin and 150 μg/ml gentamycin sulphate (Medium A). Full-depth cartilage slices from a single area, around 20 mm×20 mm were cut vertical to the articular surface and then into cubes of approximately 2 mm×2 mm (5-7 cubes were randomly obtained and wet weights about 50-70 mg/well determined).\nThe cartilage was assigned to 48 well plate (ca 40 mg/well) and kept in Medium A supplemented with 50 μg/ml ascorbic acid, 0.1 mg/bovine serum albumin, 50 μg/ml insulin, 5.0 μg/ml and 5.0 μg/ml sodium DMEM alone at 37° C. in 95% air/5% CO2. The cartilage was precultured for 2 days and medium was changed at day 0. Thereafter medium (as described in pellet cultures) was replaced every four days. Various CNBr fragments and/or synthetic peptides were freshly added from day 0 at each medium change. Thereafter, cartilage explants and conditioned media were harvested and stored at −20° C.\nThe cell pellets and cartilage explant cultured for various times were digested for the extraction of collagenase-generated neoepitope COL2-3/4Cshort (Billinghurst, R. C. et al., (1997) supra) and denatured type II collagen epitope COL2-3/4m and total type II collagen (Hollander, A. P. et al. (1994a) supra), as previously described: Briefly, the harvested pellets were incubated overnight with 1.0 mg/ml α-chymotrypsin at 37° C. to cleave and solubilize denatured collagen leaving the above neoepitope and epitope intact. After inhibition of α-chymotrypsin activity with N-tosyl-L-phenelalanine-chloromethyl ketone (Sigma), the samples were centrifuged and the supernatants were removed and boiled for 10 min. The COL2-3/4Cshort epitope (hereafter referred to as COL2-3/4Cshort) generated by cleavage of type II collagen by collagenase (Billinghurst, R. C. et al. (1997) supra) and intrachain epitope (COL2-3/4m) exposed in denatured type II collagen (Hollander, A. P. et al. (1994a) supra) were measured in α-chymotrypsin extracts by immunoassay. The COL2-3/4Cshort epitope is detected in an ELISA assay using a rabbit antibody to the carboxyterminal cleavage neoepitope on the TCA piece generated by primary collagenase cleavage of type II collagen. The release of the COL2-3/4C epitope into media was also measured by immunoassay. Total contents in tissue/cells and media was recorded for COL2-3/^4Cshort epitope. The COL2-3/4m epitope was recorded in cells and tissue where it was concentrated. The remaining residues of pellets and explants were digested overnight with 1.0 mg/ml proteinase K at 56° C. to extract the remaining intact type II collagen and then boiled for 10 min to denature the enzyme. Total type II collagen content in the pellets and explant was determined from the collective amount of COL2-3/4m in both the α-chymotrypsin and proteinase K digests."}, "[2]": {"tested_on": "normal human adult articular cartilage explants", "test": "Proteoglycan release and content (DMMB dye assay) in human explant culture", "description": "Cumulative proteoglycan (mainly aggrecan) released into medium was calculated by summation of proteoglycan contents in medium at each medium change of every four days. Cartilage explants were maintained for up to 16 days cultured with or without CB12-II at 10 μM. Sulfated glycosaminoglycan in medium was assayed by dimethylmethylene blue (DMMB) method. Data are expressed as μg GAG release per wet weight of cartilage.\nas §1\nThe cartilage was assigned to 48 well plate (ca 40 mg/well) and kept in Medium A supplemented with 50 μg/ml ascorbic acid, 0.1 mg/bovine serum albumin, 50 μg/ml insulin, 5.0 μg/ml and 5.0 μg/ml sodium DMEM alone at 37° C. in 95% air/5% CO2. The cartilage was precultured for 2 days and medium was changed at day 0. […]\nIn order to show the specificity of the peptide fragments of one embodiment on degradation of type II collagen as compared with proteoglycan, primarily aggrecan, sulphated glycosaminoglycan (GAG) content was determined in both the α-chymotrypsin and proteinase K digests for total proteoglycan (predominantly aggrecan) content in cell pellets, cartilage explants and also in conditioned media. […]\nIn order to examine any effects of SP on proteoglycan catabolism in normal human articular cartilage, cumulative proteoglycan (mainly aggrecan) release into medium and proteoglycan content in cartilage were determined by DMMB (1,9-dimethylmethyleneblue) dye assay."}, "[3]": {"tested_on": "isolated human chondrocytes", "test": "Cell attachment assay (total cellular hexosaminidase)", "conditions": "preliminary studies", "description": "Ninety six-well, non-tissue culture plates were coated with a peptide fragment of the invention (CB12-II), a negative control peptide (USP), or human fibronectin in PBS at various concentrations overnight at room temperature in the laminar flow hood. […] Optimal binding was obtained with concentration of 10 μg/ml for CB12-II. After the plates were washed once with PBS, additional protein binding sites in the plate wells were blocked with 5% heat-denatured BSA in PBS at 37° […] for 1 hour. Freshly isolated human chondrocytes were recovered for 2 hours as described above, and then added to on substrate-coated plates at the density of 1×10^7 cells/ml (0.5-2×10^6 cells/well) and incubated at 37° C. for 1 hour. The chondrocyte suspensions were preincubated with 5 μg/ml anti-integrin blocking antibodies (from Chemicon): al (clone CB12), a2 (clone P1E6), a5, (clone DID6), α1 (clone 6S6), α2 (cloneP4H9), α3 (clone 25EW), α2β1 (clone BHA2.1), and α5β1 (clone JBS5) at 4° C. for 30 min prior to adding cells to the pre-coated wells for 1 hour at 37° C. Unattached cells were removed and the wells were washed gently twice with PBS. Bound cells were then quantitated by measuring total cellular hexosaminidase as described (36, 37). […] After a 6-h incubation, 90 μl of 50 mM glycine, 5 mM EDTA, pH 10.4 was added, and the absorbance was read at 405 nm."}},
  "note": "Entries after “also recorded” stand apart in the source; their conditions may differ.",
  "data": [
    {"sequence": "ERGPPGPQGARGFPGTPGLPGVK [CB12-II]", "values": [
      {"measurement": "induction of cleavage of type II collagen, dose dependence", "setting": "[1]; 1 μM (one donor), 5 μM and 10 μM (both donors), over 16 days", "value": "dose dependent manner; also recorded: Activity was seen"},
      {"measurement": "COL2-3/4 epitope production in cartilage and medium", "setting": "[1]; 10 μM, day 12", "value": "significant progressive increase"},
      {"measurement": "type II collagen cleavage by collagenase in presence of peptide", "setting": "[1]; hydroxylation study, day 16", "value": "clearly enhanced"},
      {"measurement": "cumulative proteoglycan release, SP-treated versus control specimens", "setting": "[2]; 10 μM, up to 16 days", "value": "no significant difference"},
      {"measurement": "proteoglycan release into medium", "setting": "[2]; 10 μM, up to 16 days", "value": "did not induce proteoglycan release"},
      {"measurement": "proteoglycan content in cartilage explants", "setting": "[2]; data not shown", "value": "nor did it decrease proteoglycan content"},
      {"measurement": "coating concentration giving optimal binding of chondrocytes", "setting": "[3]", "value": 10, "unit": "µg/mL"}
    ]}
  ]
}
